Experimental data taken from US20230330109A1, “COMPOUND FOR PREVENTING AND TREATING LIVER DISEASES AND PHARMACEUTICAL USE THEREOF” (CHENGDU BIOBEL COMPANY LIMITED, priority 2020, published 2023).
Structures can show the parent of a compound that is named as a salt.

Columns and labels:
Type in all cases: in vivo
[1] = test system: male C57BL/6N mice; test: Hepatic fat staining in MCD diet FLD mice (Experimental Example 1); conditions: dosage 300 mg/kg (I-1, HTD1801) or 150 mg/kg (nor-UDCA, berberine hydrochloride)
Excerpt: (§1) 48 male C57BL/6N mice (8-week-old) were chosen, in which 8 mice were randomly divided into the blank group, fed with normal diet, while the other 40 mice were all subjected to establishing models. There was an adaptation period of 6 days before modeling. Then, mice were fed with the mixture of MCD and MCS (TROPHIC Animal Feed High-Tech Co. Ltd, Nantong, Jiangsu, China, TP3005GS, high-fat feed) in a ratio of 1:2, 1:1 and 2:1, and each ratio of diet was given to the mice for two days in the order of 1:2, 1:1 and 2:1. After that, mice were given MCD feed for 28 days (TROPHIC Animal Feed High-Tech Co. Ltd, Nantong, Jiangsu, China, TP3005G, methionine- and choline-deficient diet). On the 28th day, mice were randomly divided into five groups, namely model group, compound I-1 group, norUDCA group, berberine hydrochloride group, and HTD1801 group, eight mice for each group. After grouping, each treatment group was further fed customized MCD diet containing drugs for 20 days, while the model group was fed the same diet as the previous. All groups were fed the isocaloric diet. After the last administration on the 21st day, the mice were fasted for 16 h (but free access to water) and weighed. Then, blood was taken from the femoral artery and centrifuged to separate the serum, which was stored at low temperature of −30° C., ready for testing the biochemical indexes of the serum. In addition, the liver was taken, and two pieces of left lobe were taken for each mouse, which were placed in 10% neutral formalin solution, respectively. After treatment, liver histopathological examination was performed.

[2] = test system: male C57BL/6N mice; test: Liver histopathological examination in MCD diet FLD mice (Experimental Example 1); parameters: scale not given here; conditions: liver histopathology, dosage 300 mg/kg (I-1, HTD1801) or 150 mg/kg (nor-UDCA, berberine hydrochloride)
Excerpt: as §1

[3] = test system: male C57BL/6N mice; test: Serum biochemical indexes in MCD diet FLD mice (Experimental Example 1); parameters: AST / ALT / ALP: unit not given here; conditions: for decrease rate of ALP / decrease rate of ALT / decrease rate of AST: compared with the model group, dosages as in Table 1; for ALP / ALT / AST: serum, MCD diet mice, drug in diet for 20 days, dosage 300 mg/kg/d (I-1, HTD1801) or 150 mg/kg/d (nor-UDCA, berberine hydrochloride)
Excerpt: as §1

[4] = test system: male Wistar rats; test: Thioacetamide-induced hepatic fibrosis/cirrhosis in rats, Sirius Red fibrosis area; conditions: for decrease rate of fibrosis area: compared with the rat cirrhosis model group, dosages as in Table 4; for Hepatic fibrosis area (%): thioacetamide rats, oral, Sirius Red, dosage 160 mg/kg (I-1, HTD1801) or 80 mg/kg (nor-UDCA, berberine hydrochloride)
Excerpt: 60 male Wistar rats (weighing 180-220 g) were divided into 6 groups, with 10 rats in each group, and the rats were provided by Chengdu Dossy Experimental Animal Co., Ltd. In the experiment, the compound of the present invention and the positive control drug nor-UDCA were first ground in a proper amount of Tween, and then diluted to the pre-determined concentration with 0.5% carboxymethyl cellulose (CMC) sodium.
The rat liver fibrosis model was established by inducing with thioacetamide. Rats were intraperitoneally injected with thioacetamide at a dose of 200 mg/kg, three times a week, for 12 weeks. Four weeks after induction with thioacetamide, the compound of the present invention was orally administered to the test groups, while the blank group and the model group were given the same amount of CMC suspension. Among them, every morning, rats in each test group were given 160 mg/kg of compound I-1, 80 mg/kg of nor-UDCA, 80 mg/kg of berberine hydrochloride, and 160 mg/kg of positive control HTD1801. After experiment, all rats were euthanized, and their livers were taken out.
The liver tissue was fixed with 10% formaldehyde solution and embedded in paraffin. The fixed liver tissue was sectioned with a thickness of about […], and then stained with Hematoxylin-Eosin (HE) and Sirius Red. Sirius Red staining was used for morphological analysis and to determine the percentage of liver tissue affected by its fibrosis. The image of the section was collected by using the microscopic imaging system. In order to make the results more accurate, 15 positive visual fields of Sirius Red staining were randomly selected from each slice to calculate the proportion of liver fibrosis area, which was used in statistical analysis.

COc1ccc2cc3[n+](cc2c1OC)CCc1cc2c(cc1-3)OCO2 [Berberine hydrochloride, berberine hydrochloride]
Hepatic fat staining Scores [1]: 1.9 | Score Edema [2]: 1.8 | Score Inflammation cell infiltration [2]: 1.9 | Score Necrosis [2]: 2.1 | Score Steatosis [2]: 2.2 | decrease rate of ALP [3]: 15.10% | decrease rate of ALT [3]: 12.09% | decrease rate of AST [3]: 1.86% | ALP [3]: 193.4 ± 32.9 | ALT [3]: 942.4 ± 64.5 | AST [3]: 768.4 ± 38.1 | decrease rate of fibrosis area [4]: 15.17% | Hepatic fibrosis area (%) [4]: 15.14 ± 3.67%

COc1ccc2cc3[n+](cc2c1OC)CCc1cc2c(cc1-3)OCO2.C[C@H](CCC(=O)[O-])[C@H]1CC[C@H]2[C@@H]3[C@@H](O)C[C@@H]4C[C@H](O)CC[C@]4(C)[C@H]3CC[C@]12C [HTD1801]
Hepatic fat staining Scores [1]: 1.1 | Score Edema [2]: 0.7 | Score Inflammation cell infiltration [2]: 1.3 | Score Necrosis [2]: 0.8 | Score Steatosis [2]: 1.3 | ALP [3]: 188.8 ± 21.3 | ALT [3]: 303.0 ± 99.1 | AST [3]: 409.9 ± 51.7 | Hepatic fibrosis area (%) [4]: 9.39 ± 1.45%

C[C@H](CC(=O)O)[C@H]1CC[C@H]2[C@@H]3[C@@H](O)C[C@@H]4C[C@H](O)CC[C@]4(C)[C@H]3CC[C@]12C [nor-UDCA, norursodeoxycholic acid]
Hepatic fat staining Scores [1]: 1.7 | Score Edema [2]: 1.6 | Score Inflammation cell infiltration [2]: 2.1 | Score Necrosis [2]: 2.0 | Score Steatosis [2]: 2.5 | decrease rate of ALP [3]: 12.95% | decrease rate of ALT [3]: 21.82% | decrease rate of AST [3]: 20.67% | ALP [3]: 198.3 ± 94.5 | ALT [3]: 761.8 ± 374.2 | AST [3]: 683.4 ± 253.7 | decrease rate of fibrosis area [4]: 6.18% | Hepatic fibrosis area (%) [4]: 16.79 ± 5.48%
